Source: patent US8586611B2 (priority 2005, dated 2013)

Experiments:
Assay type in all cases: in vivo
Phytophthora infestans [1] = assay: whole plant or invertebrate; conditions: tomato late blight
[2] = tested on: Erysiphe graminis f. sp. tritici; assay: Test E: wheat powdery mildew, spray the day before inoculation (disease rating, 100 = 100% disease control)
Excerpt: (§1) The test compounds were first dissolved in acetone in an amount equal to 3% of the final volume and then suspended at the desired concentration (in ppm) in acetone and purified water (50/50 mix by volume) containing 250 ppm of the surfactant Trem® 014 (polyhydric alcohol esters). The resulting test suspensions were then used in tests A-E. Spraying a 200 ppm test suspension to the point of run-off on the test plants was the equivalent of a rate of 500 g/ha.
The test suspension was sprayed to the point of run-off on wheat seedlings. The following day the seedlings were inoculated with a spore dust of Erysiphe graminis f. sp. tritici, (the causal agent of wheat powdery mildew) and incubated in a growth chamber at 20° C. for 7 days, after which disease ratings were made.
(§2) Results for Tests A-F are given in Table A. In the table, a rating of 100 indicates 100% disease control and a rating of 0 indicates no disease control (relative to the controls). A dash (-) indicates no test results.

Plasmopara viticola = assay: Test B: grape downy mildew, spray 24 h after inoculation (disease rating, 100 = 100% disease control)
Excerpt: as §1
Grape seedlings were inoculated with a spore suspension of Plasmopara viticola (the causal agent of grape downy mildew) and incubated in a saturated atmosphere at 20° C. for 24 h. After a short drying period, the test suspension was sprayed to the point of run-off on the grape seedlings and then moved to a growth chamber at 20° C. for 5 days, after which the test units were placed back into a saturated atmosphere at 20° C. for 24 h. Upon removal, disease ratings were made.
as §2

Phytophthora infestans [3] = assay: whole plant or invertebrate; conditions: tomato late blight; remark: listed apart in the source
[4] = spray the day before inoculation, compounds without asterisk (not 40 or 10 ppm)
[5] = spray 24 h after inoculation, compounds without asterisk (not 40 or 10 ppm)
[6] = sprayed the day before inoculation, tested at 10 ppm (**)
[7] = sprayed 17 h after inoculation, tested at 10 ppm (**)
[8] = sprayed 24 h after inoculation, tested at 10 ppm (**)
[9] = sprayed the day before inoculation, unmarked compounds (no asterisk, not 40 or 10 ppm)
[10] = sprayed 24 h after inoculation, unmarked compounds (no asterisk, not 40 or 10 ppm)
[11] = sprayed 17 h after inoculation, unmarked compounds (no asterisk, not 40 or 10 ppm)

Row | SMILES | Test C disease rating (100 = 100% disease control, 0 = no disease control) (Phytophthora infestans [1]; [9]) | Test B disease rating (100 = 100% disease control, 0 = no disease control) (Plasmopara viticola; [10]) | Test D disease rating (100 = 100% disease control, 0 = no disease control) (Phytophthora infestans [3]; [11]) | other results
1 | COCC(c1ccccc1)N(C)C(=O)c1csc(C2CCN(C(=O)Cc3cc(C)ccc3C)CC2)n1 (stereo not drawn) [compound 109] | – | – | – | Test C disease rating (100 = 100% disease control, 0 = no disease control) (Phytophthora infestans [1]; [4]): 99%; Test E disease rating (100 = 100% disease control, 0 = no disease control) [2, 4]: 94%; Test B disease rating (100 = 100% disease control, 0 = no disease control) (Plasmopara viticola; [5]): 99%
2 | COc1ccc(CCN(C)C(=O)c2csc(C3CCN(C(=O)Cc4cc(C)ccc4C)CC3)n2)cc1OC [compound 171] | – | – | – | Test D disease rating (100 = 100% disease control, 0 = no disease control) (Phytophthora infestans [3]; spray 17 h after inoculation, compounds without asterisk (not 40 or 10 ppm)): 24%; Test E disease rating (100 = 100% disease control, 0 = no disease control) [2, 4]: 0%; Test B disease rating (100 = 100% disease control, 0 = no disease control) (Plasmopara viticola; [5]): 0%
3 | Cc1cc(C(F)(F)F)nn1CC(=O)N1CCC(n2nnc(C(=O)N(C)[C@@H]3CCCc4ccccc43)n2)CC1 [compound 256] | – | – | – | Test C disease rating (100 = 100% disease control, 0 = no disease control) (Phytophthora infestans [1]; sprayed the day before inoculation, tested at 40 ppm (*)): 100; Test D disease rating (100 = 100% disease control, 0 = no disease control) (Phytophthora infestans [3]; sprayed 17 h after inoculation, tested at 40 ppm (*)): 86; Test B disease rating (100 = 100% disease control, 0 = no disease control) (Plasmopara viticola; sprayed 24 h after inoculation, tested at 40 ppm (*)): 99
4 | Cc1cc(Cl)nn1CC(=O)N1CCC(c2nc(C(=O)N(C)[C@@H]3CCCc4ccccc43)cs2)CC1 [compound 257] | – | – | – | Test C disease rating (100 = 100% disease control, 0 = no disease control) (Phytophthora infestans [1]; [6]): 100; Test D disease rating (100 = 100% disease control, 0 = no disease control) (Phytophthora infestans [3]; [7]): 99; Test B disease rating (100 = 100% disease control, 0 = no disease control) (Plasmopara viticola; [8]): 99
5 | Cc1cc(Br)nn1CC(=O)N1CCC(c2nc(C(=O)N(C)[C@@H]3CCCc4ccccc43)cs2)CC1 [compound 258] | – | – | – | Test C disease rating (100 = 100% disease control, 0 = no disease control) (Phytophthora infestans [1]; [6]): 100; Test D disease rating (100 = 100% disease control, 0 = no disease control) (Phytophthora infestans [3]; [7]): 99; Test B disease rating (100 = 100% disease control, 0 = no disease control) (Plasmopara viticola; [8]): 100
6 | C[C@H](NC(=O)c1csc(C2CCN(C(=O)Cc3ccccc3Cl)CC2)n1)c1ccccc1 [compound 260] | 0 | 14 | – | Test E disease rating (100 = 100% disease control, 0 = no disease control) ([2]; sprayed the day before inoculation, 7 days at 20° C., unmarked compounds (no asterisk, not 40 or 10 ppm)): 0
7 | Cc1cc(C(F)(F)F)nn1CC(=O)N1CCC(c2nc(C(=O)N[C@H](C)c3ccccc3)cs2)CC1 [compound 301] | 99 | 99 | 80 | –
8 | CCN(C(=O)c1csc(C2CCN(C(=O)Cn3nc(C(F)(F)F)cc3C)CC2)n1)[C@H](C)c1ccccc1 [compound 302] | 95 | 86 | 26 | –
9 | CCCN(C(=O)c1csc(C2CCN(C(=O)Cn3nc(C(F)(F)F)cc3C)CC2)n1)[C@H](C)c1ccccc1 [compound 303] | 95 | 45 | 26 | –
10 | C=CCN(C(=O)c1csc(C2CCN(C(=O)Cn3nc(C(F)(F)F)cc3C)CC2)n1)[C@H](C)c1ccccc1 [compound 304] | 57 | 72 | 26 | –
11 | Cc1cc(C(F)(F)F)nn1CC(=O)N1CCC(c2nc(C(=O)N[C@@H]3CCCc4ccccc43)cs2)CC1 [compound 305] | 100 | 100 | 99 | –
12 | CCN(C(=O)c1csc(C2CCN(C(=O)Cn3nc(C(F)(F)F)cc3C)CC2)n1)[C@@H]1CCCc2ccccc21 [compound 306] | 100 | 96 | 83 | –
